Assay results: patent US9789096B2, “Methods and compositions for selective and targeted cancer therapy” (Board of Regents of the University of Texas System, priority 2013, dated 2017)
Where two headings read alike, the source gives them in different places.

Tests used:
Format in all cases: cell-based, human
H2122 = assay: Cell viability dose-response, H2122; conditions: Homo sapiens; for AC50: NCI-H2122, Table 8, 12-point dose-response starting at 50 micromolar
How it was run: (§1)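 Cells plated at 15% confluence in RPMI-1640 with 5% FBS and 2 mM L-glutamine, treated with compound in a 12-point, 3-fold dilution series from 50 micromolar, in duplicate. ATP measured by Cell Titer Glo after 4 days; IC50 taken from the dose-response curve.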

H1819 = assay: Cell viability dose-response, H1819; conditions: Homo sapiens; for AC50: NCI-H1819, Table 8, 12-point dose-response starting at 50 micromolar; for IC50: NCI-H1819, Tables 3 and 4, read-out: IC50 (uM) vs indicated non-small cell lung cancer cell line H1819
How it was run: as §1

H2073 = assay: Cell viability dose-response, H2073; conditions: Homo sapiens; for AC50: NCI-H2073, Table 8, 12-point dose-response starting at 50 micromolar
Procedure: FIG. 6A. […] Cell viability is plotted vs. compound concentration. Compound was added to cells plated at 15% confluence in 96-well plates in RPMI-1640 media supplemented with 5% Fetal Bovine Serum and 2 mM L-Glutamine. After 4 days of incubation, ATP levels were measured using Cell Titer Glo (Promega). Data are presented as the average of 2 replicates ±SEM.
Selectivity may be measured by the half maximal inhibitory concentration (IC50), which, as used herein, is a measure of the effectiveness of a compound in killing cells. This quantitative measure indicates how much of a particular compound is needed to kill a particular cell population by half (e.g., as indicated by the amount of ATP). […] The IC50 can be determined by constructing a dose-response curve. The lower the IC50, the higher the potency, and the greater the difference between IC50 values for different cell lines (e.g., sensitive lines vs. insensitive lines, and sensitive lines vs. normal lines) the greater the selectivity. […]
With this information, we synthesized and tested a series of small molecules derived in conception from the oxalamide and chromone scaffold including N-acyl ureas, as shown in Tables 6-8. Each compound was tested in a 12-point dose-response study starting at 50 micromolar and decreasing in 3-fold increments to sub-nanomolar concentrations, in duplicate. Additionally, one or more additional cell line was tested in the same way.

H2009 = assay: Cell viability dose-response, H2009; conditions: Homo sapiens; for IC50: NCI-H2009; for AC50: NCI-H2009, Table 8
How it was run: (§2)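 IC50 values derive from 12-point, 3-fold dilution curves starting at 50 micromolar, run in duplicate. ATP content was read by CellTiter-Glo after 4 days of compound treatment. Cells were plated at 15% confluence in RPMI-1640 containing 5% FBS and 2 mM L-glutamine.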

HCC44 = assay: Cell viability dose-response, HCC44; conditions: Homo sapiens; for AC50: HCC44, Table 8, 12-point dose-response starting at 50 micromolar
How it was run: as §2

[1] = NCI-H2122, Tables 3 and 4, read-out: IC50 (uM) vs indicated non-small cell lung cancer cell line H2122
[2] = NCI-H2073, Tables 3 and 4, read-out: IC50 (uM) vs indicated non-small cell lung cancer cell line H2073
[3] = NCI-H2122, 12-point dose-response starting at 50 micromolar, 3-fold increments, in duplicate, read-out: toxicity data, H2122
[4] = NCI-H2122, Table 9, competitor, read-out: IC50 to H2122 cells
[5] = 12-point dose-response starting at 50 micromolar, 3-fold increments, in duplicate, read-out: toxicity data, H2009
[6] = HCC44, 12-point dose-response starting at 50 micromolar, 3-fold increments, in duplicate, read-out: toxicity data, HCC44
[7] = 12-point dose-response starting at 50 micromolar
[8] = Tables 3 and 4, read-out: IC50 (uM) vs indicated non-small cell lung cancer cell line H2009
[9] = HCC44, Tables 3 and 4, read-out: IC50 (uM) vs indicated non-small cell lung cancer cell line HCC44

Compound `O=C1c2ccc(OCc3cnn(-c4ccccc4)c3)cc2OCC1Cc1ccccc1` (stereo not shown) [SW209202-1] has an AC50 (H2122) of 0.307 µM, an AC50 (H1819) of 49.5 µM and an AC50 (H2073) of 49.5 µM.

For `O=C1/C(=C/c2cccc(C(F)(F)F)c2)COc2cc(OCc3cnn(-c4ccccc4)c3)ccc21` [SW209197-1], the AC50 (H2122) was 0.042 µM, the AC50 (H1819) was 21.8 µM and the AC50 (H2073) was 26 µM.

`O=c1c(Cc2cccs2)coc2cc(OCc3cnn(-c4ccccc4)c3)ccc12` [SW209378-1] gave an AC50 (H2122) of 0.081 µM, an AC50 (H1819) of 49.5 µM and an AC50 (H2073) of 0.068 µM.

With `COC(=O)c1ccc2nc(NC(=O)c3ccc(C(=O)c4ccccc4)cc3)sc2c1` [SW211561-1] the IC50 (H2122; [1]) was 7.75 µM, the IC50 (H1819) was 16.5 µM and the IC50 (H2073; [2]) was 29.1 µM.

`O=c1c(Cc2cnccn2)coc2cc(OCc3cnn(-c4ccccc4)c3)ccc12` [SW209207-1] was tested, and the AC50 (H2122) was 26.6 µM, the AC50 (H1819) was 49.5 µM and the AC50 (H2073) was 49.5 µM.

Compound `Nc1ccc(C(=O)Nc2nc3ccccc3[nH]2)cc1` [SW211566] has an IC50 (H2122; [1]) of at least 49.5 µM, an IC50 (H1819) of at least 49.5 µM and an IC50 (H2073; [2]) of 49.5 µM.

For `COc1ccccc1C(=O)c1ccc(C(=O)NC(=O)NCCc2ccc(O)cc2)cc1` [SW208580-1-A], the IC50 (H2122; [3]) was 9.46 µM, the IC50 (H2122; [4]) was 0.8 µM and the IC50 (H2009; [5]) was 2.14 µM. For the same compound, the IC50 (HCC44; [6]) was 8.08 µM.

`O=c1c(Cc2ccccc2)coc2cc(OCc3cnn(-c4ccccc4)c3)ccc12` [SW208769-1] showed an AC50 (H2122) of 0.027 µM, an AC50 (H2009; [7]) of 49.5 µM and an AC50 (HCC44) of 3.18 µM.

For `c1ccc(-n2cc(COc3ccc4cc(OCc5cnn(-c6ccccc6)c5)ccc4c3)cn2)cc1` [SW 208630-1], the AC50 (H2122) was at least 49.5 µM, the AC50 (H2009; [7]) was 49.5 µM and the AC50 (HCC44) was 49.5 µM.

For `O=C(Nc1nc2ccc(OCCCBr)cc2s1)c1ccc(C(=O)c2ccccc2)cc1` [SW 208235], the IC50 (H2122; [1]) was at least 49.5 µM, the IC50 (H2009; [8]) was 49.5 µM and the IC50 (HCC44; [9]) was 49.5 µM.

`COc1ccc(CCNC(=O)NC(=O)c2ccc(C(N)c3ccccc3)cc2)cc1` (stereo not shown) [SW208564-1-A] showed an IC50 (H2122; [3]) of 0.32 µM, an IC50 (H2009; [5]) of 5.62 µM and an IC50 (HCC44; [6]) of 0.06 µM.

Work on `Cc1oc2cc(OCc3cnn(-c4ccccc4)c3)ccc2c(=O)c1Oc1ccccc1F` [SW 208587-1] yielded an AC50 (H2122) of 0.39 µM, an AC50 (H2009; [7]) of 16.5 µM and an AC50 (HCC44) of 49.5 µM.

`O=C(c1ccccc1)c1coc2cc(OCc3cnn(-c4ccccc4)c3)ccc2c1=O` [SW208844-1] gave an AC50 (H2122) of 0.864 µM, an AC50 (H2009; [7]) of 30 µM and an AC50 (HCC44) of 23.7 µM.

For `O=c1c(Oc2ccccc2F)coc2cc(OCc3cnn(-c4ccc(Cl)cc4)c3)ccc12` [SW208469], the AC50 (H2122) was at least 49.5 µM, the AC50 (H2009; [7]) was 16.5 µM and the AC50 (HCC44) was 49.5 µM.

In the case of `COc1ccc(CCNC(=O)C(=O)Nc2ccc(Oc3ccc(Br)cc3)cc2)cc1` [SW209075-1], the IC50 (H2122; [3]) is reported as 0.029 µM and the IC50 (H2073; NCI-H2073, 12-point dose-response starting at 50 micromolar, 3-fold increments, in duplicate, read-out: toxicity data, H2073) is reported as 8.07 µM.

`O=c1c(C#Cc2ccccc2)coc2cc(OCc3cnn(-c4ccccc4)c3)ccc12` [SW208768-1] showed an AC50 (H2122) of 24.8 µM, an AC50 (H2009; [7]) of 19.9 µM and an AC50 (HCC44) of 16.5 µM.

`COc1ccc(CCNC(=O)NC(=O)c2ccc(C(=O)Nc3cccc(OC)c3)cc2)cc1` [SW208410-1-A] showed an IC50 (H2122; [3]) of at least 49.5 µM, an IC50 (H2009; [5]) of 1.37 µM and an IC50 (HCC44; [6]) of at least 49.5 µM.

Work on `O=C(Nc1ncc(-c2ccccc2)s1)c1ccc(C(=O)c2ccccc2)cc1` [SW209017] yielded an IC50 (H2122; [1]) of 5.76 µM, an IC50 (H2009; [8]) of 4.95 µM and an IC50 (HCC44; [9]) of 49.5 µM.

For `COc1ccc(CCNC(=O)NC(=O)c2ccc(C(=O)NC3CC3)cc2)cc1` [SW208452-1-A], the IC50 (H2122; [3]) was at least 49.5 µM, the IC50 (H2009; [5]) was 13.1 µM and the IC50 (HCC44; [6]) was at least 49.5 µM.

With `O=C(NCCc1ccc(O)cc1)NC(=O)c1ccc(C(=O)c2ccccc2)cc1` [SW208459-1-A] the IC50 (H2122; [3]) was 0.097 µM, the IC50 (H2122; [4]) was 0.0377 µM and the IC50 (H2009; [5]) was 0.299 µM. It also gave an IC50 (HCC44; [6]) of 0.073 µM.

For `O=c1c(-c2ccc(F)c(F)c2)coc2cc(OCc3cnn(-c4ccccc4)c3)ccc12` [SW208762-1], the AC50 (H2122) was 0.18 µM, the AC50 (H2009; [7]) was 43.2 µM and the AC50 (HCC44) was 49.5 µM.

`COc1ccc(CCNC(=O)NC(=O)c2ccc(Oc3ccccc3)cc2)cc1` [SW208456-1-A] showed an IC50 (H2122; [3]) of 0.031 µM, an IC50 (H2009; [5]) of at least 49.5 µM and an IC50 (HCC44; [6]) of 0.022 µM.
